Experimental data as given in patent US20210338576A1, “CANCER TREATMENT” (NOXOPHARM LIMITED, priority 2016, published 2021).

What was measured:
[1] = test system: late-stage ovarian cancer; settings: Phase 3, late-stage ovarian cancer, 142 women recruited (Fotopoulou et al. 2014); cited from earlier work
primary prostate cancer [2] = assay: Oral administration of idronoxil to a prostate cancer patient, PSA follow-up; assay type: in vivo, human; design: PSA at completion of 2 week period: unit not given here
Experimental: Patient receiving chemical castration therapy presenting with undetectable testosterone and receiving Zolodex for primary prostate cancer (PSA=3.4). Patient received 400 mg idronoxil daily by oral administration, increasing to 800 mg daily for 2 weeks. PSA at completion of 2 week period=6.7 indicating doubling time of 1 month.

[3] = test system: colo-rectal cancer cell lines (eg. HT-29, CaCo-2); settings: HT-29, CaCo-2 (Alvero et al, 2008); cited from earlier work
primary prostate cancer [4] = assay: Cytotoxic monotherapy with idronoxil suppository in theobroma oil base in prostate cancer patients, PSA follow-up; assay type: in vivo, human
Experimental: Patient receiving chemical castration therapy presenting with undetectable testosterone and receiving Zolodex for primary prostate cancer has a PSA doubling time of 6 weeks (PSA=9.6). Patient received suppository comprising 400 mg idronoxil in theobroma oil suppository base daily for 4 weeks. […] Suppository treatment was stopped for a period of 2 weeks and then continued for 2 weeks.
Patient receiving chemical castration therapy having urinary obstruction and pelvic discomfort receiving 400 mg idronoxil suppository formulation for primary prostate cancer (PSA=19). Patient received suppository comprising 800 mg idronoxil in theobroma oil suppository based daily in 2 week courses for 15 months. The suppository formulation slowed tumour growth to a doubling time of 6 months (PSA=67 at completion of 15 month therapy).

[5] = intravenously administered, cyclodextrin carrier (Howes et al, 2011); cited from earlier work
[6] = test system: wide range of cancer cell types; settings: fold more potent than genistein; cited from earlier work
primary prostate cancer [7] = assay: Rectal idronoxil in olive oil (high oleic acid) base in a prostate cancer patient, PSA follow-up; assay type: in vivo, human
Experimental: Patient receiving chemical castration therapy presenting with undetectable testosterone and receiving Zolodex for primary prostate cancer (PSA=6.0). Patient received 400 mg idronoxil daily in olive oil base rectally for 3 weeks.

[8] = Brown et al, 2008; cited from earlier work
late-stage cancers = settings: patients with late-stage cancers (Pant et al, 2014); cited from earlier work
[9] = 400 mg theobroma oil suppository, after stop for 2 weeks, then continued for 2 weeks
[10] = suppository 800 mg in theobroma oil base daily in 2 week courses for 15 months, PSA at start 19

SMILES | clinical benefit [1] | effect on tumour doubling time (primary prostate cancer [2]; oral administration) | PSA doubling time (primary prostate cancer [2]; oral, 400 mg daily increasing to 800 mg daily for 2 weeks) | PSA at completion of 2 week period (primary prostate cancer [2]; oral, 400 mg daily increasing to 800 mg daily for 2 weeks, chemical castration therapy, PSA at start 3.4) | sensitivity of colo-rectal cancer cell lines [3] | PSA score (primary prostate cancer [4]; [9]) | effect on tumour growth (primary prostate cancer [4]; [9]) | effect on tumour growth (primary prostate cancer [4]; suppository 400 mg in theobroma oil base daily for 4 weeks) | PSA score (primary prostate cancer [4]; suppository 400 mg in theobroma oil base daily for 4 weeks, PSA at start 9.6, doubling time 6 weeks) | PSA at completion of 15 month therapy (primary prostate cancer [4]; [10]) | tumour doubling time (primary prostate cancer [4]; [10]) | conjugation [5] | potency as an anti-cancer agent compared to genistein [6] | tumour growth during treatment (primary prostate cancer [7]; 400 mg daily in olive oil base rectally) | PSA at completion of 2 week period (primary prostate cancer [7]; 400 mg daily in olive oil base rectally for 3 weeks, PSA at start 6.0) | susceptibility to Phase 1 metabolic processes [8] | clinical benefit (late-stage cancers)
Oc1ccc(C2=Cc3ccc(O)cc3OC2)cc1 [idronoxil, 2H-1-Benzopyran-7-0,1,3-(4-hydroxyphenyl)] | lack of any clinical benefit | failed to reduce tumour doubling time | 1 month | 6.7 | insensitivity | 10 | inhibitory effect on tumour growth | effectively stopped tumour growth | 10 | 67 | 6 months | completely conjugated | about 10 × | continual growth of tumour during the treatment period | 9.6 | not being particularly susceptible to Phase 1 metabolic processes | 
Oc1ccc(C2COc3cc(O)ccc3C2c2ccc(O)cc2)cc1 (centres unmarked) [ME-143, 4,4′-(7-hydroxychroman-3,4-diyl)diphenol] |  |  |  |  |  |  |  |  |  |  |  |  |  |  |  |  | failed to show any clinical benefit
